Reference: US20110060021A1 (priority 2009, published 2011)

Tests used:
[1] = test system: recombinant human HDAC1-4 and HDAC6-9; test: Histone deacetylase inhibition, two-step fluorogenic assay; type: biochemical; settings: reduced form of the compound
Protocol: TCEP, tris(2-carboxyethyl)phosphine hydrocloride used as a reducing agent.
The experiments included HDACs falling in human class I (HDACs 1, 2, 3 and 8), as well as human class II (HDACs 4, 6, 7 and 9), and the activities were determined in a two-step fluorogenic assay by the method described in (Wegener et al. Analytical biochemistry (2003) 321:202-208). All HDAC dose-response curves were bundled for each compound individually in the native/oxidized and the reduced forms. The activity of each enzyme was normalized separately. For determination of the inhibitory effect, IC50 values (in μM concentrations) were obtained through a non-linear four-parameter fit.

NCI-60 cancer cell lines [2] = test: NCI-60 single-dose assay; type: cell-based, human; settings: single dose 10 μM
[3] = test system: CNS cancer cell line (U251); test: NCI-60 assay, U251 cell line; type: cell-based, human
[4] = test system: breast cancer cell line (BT-549); test: NCI-60 assay, BT-549 cell line; type: cell-based, human
NCI-60 cancer cell lines [5] = settings: for number of cancer cell lines completely killed / number of cancer cell lines whose growth was totally inhibited / TGI50, median concentration for total growth inhibition / GI50 / CC50: five-dose assay; for number of cancer cell lines completely killed: at median LC50 or lower; for number of cancer cell lines whose growth was totally inhibited: at median TGI50 or lower; for TGI50, median concentration for total growth inhibition: 29 (A) / 28 (B) cell lines; for GI50: read-out: GI50, median concentration, all but three cancer cell lines (HCT-15, NCI/ADR-RES, CAKI-1); for CC50: read-out: LC50, median concentration, 17 (A) / 20 (B) cell lines completely killed

| Compound | HDAC inhibition ranking (order of inhibition) [1] | inhibitory activity across the 60 cancer cell lines (NCI-60 cancer cell lines [2]) | number of cell lines inhibited at the mean growth percent or more (NCI-60 cancer cell lines [2]) [cell lines] | sensitivity of U251 CNS cancer cell line [3] | sensitivity of BT-549 breast cancer cell line [4] | number of cancer cell lines completely killed (NCI-60 cancer cell lines [5]) [cancer cell lines] | number of cancer cell lines whose growth was totally inhibited (NCI-60 cancer cell lines [5]) [cancer cell lines] | TGI50, median concentration for total growth inhibition (NCI-60 cancer cell lines [5]) [nM] | GI50 (NCI-60 cancer cell lines [5]) [µM] | CC50 (NCI-60 cancer cell lines [5]) [µM] | cancer cell lines inhibited in five-dose assay (NCI-60 cancer cell lines [5]; exceptions: HCT-15 colon, NCI/ADR-RES ovarian, CAKI-1 renal) | relative potency (all parameters) (NCI-60 cancer cell lines [5]; thailandepsin A vs thailandepsin B) |
| --- | --- | --- | --- | --- | --- | --- | --- | --- | --- | --- | --- | --- |
| CC=C1NC(=O)C(CS)NC(=O)C(C(C)C)NC(=O)CC(C=CCCS)OC(=O)C(C(C)C)NC1=O (stereo not drawn) [reduced form of FK228] | HDAC2≧HDAC3≧HDAC1>HDAC8>HDAC4≧HDAC6>HDAC9≧HDAC7 | – | – | – | – | – | – | – | – | – | – | – |
| CCCC[C@H]1NC(=O)C[C@H]2/C=C/CCSSC[C@@H](NC1=O)C(=O)N[C@H]([C@@H](C)CC)[C@@H](O)CC(=O)O2 [thailandepsin B] | – | consistently inhibitory to most but not all 60 cancer cell lines | 30 | very sensitive | very sensitive | 20 | 28 | ≤ 256.4 | ≤ 0.0117 | ≤ 6.92 | – | – |
| CC[C@H](C)[C@H]1NC(=O)[C@H]2CSSCC/C=C/[C@H](CC(=O)N[C@H](CCSC)C(=O)N2)OC(=O)C[C@@H]1O [thailandepsin A] | – | consistently inhibitory to most but not all 60 cancer cell lines | 28 | very sensitive | very sensitive | 17 | 29 | ≤ 125.9 | ≤ 0.0056 | ≤ 3.89 | inhibitory to all but three cancer cell lines | twice as potent as thailandepsin B |
